How the values were obtained:
[1] = Synovial fluid concentrations of MIV-711 in dogs; format: in vivo; settings: dog
Method: Synovial fluid was collected from as many dogs as possible immediately before surgery and then again during necropsy from both operated and contralateral knees. The fluid was sampled directly without lavage using a syringe. The synovial fluid was transferred into tubes containing EDTA. The samples were spun in a centrifuge, and the supernatant was collected and stored at − 70 °C until analysis.
To measure MIV-711 concentrations, 10–50 µL of plasma or synovial fluid was mixed with 30–150 µL of acetonitrile, samples were centrifuged (10 min, 20,000g, 7 °C) and 5 µL of the supernatant was injected onto the LC–MS/MS system. The lower limit of quantification (LLOQ) was 1 nmol/L.

dog cathepsin K enzyme = settings: read-out: Ki against dog cathepsin K enzyme; cited from earlier work
[2] = tested on: dogs subjected to partial medial meniscectomy; assay: Dog partial medial meniscectomy study, tibial cartilage lesion area by imaging analysis of photographs; format: in vivo; settings: 30 µmol/kg
Method: Dogs subjected to partial medial meniscectomy received either 30 µmol/kg MIV-711 (synthesized by Medivir and given as a suspension in 1% Methocel A4C; n = 15) or vehicle (1% Methocel A4C; n = 15) by orogastric gavage once daily in the morning. […] Dosing started the day before surgery and lasted through Day 28, the day before necropsy. Each dog was fasted for at least 12 h before dosing and food were returned approximately 4 h following test article administration.
All animals were humanely euthanized on Day 29 to collect specimens for pathology. Following sedation with acepromazine, euthanasia was performed via injection of a pentobarbital-based euthanasia solution (≥ 88 mg/kg pentobarbital). At study termination, the left (operated) knee was opened, disarticulated and the lesions on the medial tibia and femur measured, described and photographed. The observers were blinded to the treatment. Photographs were used (with or without India Ink lesion enhancement) to determine % area of lesions on each medial tibial plateau. Lesions were classified as more severe or less severe depending on the intensity of India ink staining or perception of depth and areas for each calculated. Gross cartilage lesions were measured (length × width) and described as superficial, moderate, or deep. Gross subjective cartilage degeneration scores were assigned for the medial and lateral tibial and femoral compartments as follows based on lesion measurements (see above): 0: normal, 1: superficial degeneration up to 10 mm^2, 2: superficial degeneration greater than 10 mm^2, 3: moderate depth degeneration up to 15 mm^2, 4: moderate depth degeneration greater than 15 mm^2. Subjective scores for the various regions were then used to generate an overall index of subjective cartilage degeneration for each region for each animal. Actual measurements of cartilage lesions were used to derive a calculated set of data points based on length × width × depth score (with depth score of 1 = superficial, 2 = medium, and 3 = deep, based on gross description). Percent of more or less severe tibial lesion area was determined from photographs taken at necropsy.

plasma proteins = assay: Fraction bound to plasma proteins, rabbit; format: in vitro ADME

For `C#C[C@@H]1CN(C(=O)[C@H](CC(C)C)NC(=O)c2ccc(-c3nc(N4CCN(C)CC4)sc3F)cc2)[C@@H]2C(=O)CO[C@H]12` [MIV-711], the “MIV-711 levels in synovial fluid” value ([1]; 24 h after first dose and 24 h after last dose of 30 µmol/kg) is listed as “low but measurable”, the “MIV-711 levels in synovial fluid, injured left knee compared to right knee” value ([1]; at sacrifice, 24 h after last dose of 30 µmol/kg) is listed as “fivefold higher” and the Ki (dog cathepsin K enzyme) is listed as 1.5 nM. The “Total lesion area, reduction vs vehicle (printed in Fig. 7)” value ([2]; dog, left tibia plateau) was 26%, the “proportion of tibial cartilage affected by lesions (lesioned area)” value ([2]; dog, left tibia plateau, vehicle 21.0% ± 2.6) was 15.5% and the “area of severe lesions, lower than vehicle group” value ([2]; dog, p = 0.08) was 80%. For the same compound, the “dogs with severe tibial cartilage lesions” value ([2]; dog, vehicle 6/15) was 3/15, the “area of severe tibial cartilage lesions” value ([2]; three dogs with severe lesions, vehicle 10 ± 4%) was 2 ± 1% and the “fraction bound to plasma proteins” value (plasma proteins) was 92%.
